Assay results taken from patent US6461997B1, “Triazole sulfones having herbicidal activity” (Monsanto Technology LLC, priority 1999, dated 2002).

Columns and labels:
[1] = test system: PANMI (wild proso millet); assay: Pre-emergence herbicidal activity, warm season; assay type: in vivo, Panicum miliaceum; details: GR80 = lowest tested rate (300, 100, 30, 10 g/ha) with 80% or greater inhibition; approx. 14 days after treating; 30/21° C.
Procedure, shortened: (§1)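 Seeds sown in sterilised fertilised topsoil received surface-applied compound in 50:50 acetone/water, typically at 300, 100, 30 and 10 g/ha, then greenhouse-grown at 30/21° C (warm-season species) or 18/13° C (cool-season species). Percent inhibition versus untreated plants was scored at about 14 days, giving GR80; an asterisk marks activity short of 80% at the top rate.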

SASKR (russian thistle) = assay: Pre-plant incorporated (PPI) herbicidal activity, cool season; assay type: in vivo, Salsola kali
Procedure, shortened: (§2)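 Seeds were sown on compacted topsoil and covered with soil that had been sprayed with compound in organic solvent and mixed through. Pots got 0.64 cm overhead irrigation, then greenhouse at 30/21 °C (warm-season species) or 18/13 °C (cool-season species) day/night. Percent inhibition versus untreated plants was scored about 14 days after planting.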

LOLMG (annual ryegrass) = assay: as above; assay type: in vivo, Lolium multiflorum
Procedure, shortened: as §2

[2] = test system: AGSST (creeping bentgrass); assay: as above; assay type: in vivo, Agrostis stolonifera
Procedure, shortened: as §2

corn (ZEAMX) = assay: Selectivity test, PPI, warm season crop; assay type: in vivo, Zea mays; details: Zea mays, PPI application, read-out: Percent inhibition ZEAMX
Procedure, shortened: (§3)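 Pre-plant incorporated: compound in organic solvent sprayed onto cover soil, mixed and laid over seeds; untreated soil for controls. Greenhouse after treatment: warm season 30/21° C., cool season 18/13° C. day/night. Percent inhibition versus untreated plants scored about 14 days after planting.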

DIGSA (large crabgrass) = assay: Pre-plant incorporated (PPI) herbicidal activity, warm season; assay type: in vivo, Digitaria sanguinalis
Procedure, shortened: as §2

AVEFA (wild oat) = assay: Pre-plant incorporated (PPI) herbicidal activity, cool season; assay type: in vivo, Avena fatua
Procedure, shortened: as §2

soybean (GLYMX) = assay: Selectivity test, PPI, warm season crop; assay type: in vivo, Glycine max; details: Glycine max, PPI application, read-out: Percent inhibition GLYMX
Procedure, shortened: as §3

[3] = test system: CIRAR (canada thistle (seedling)); assay: Pre-emergence herbicidal activity, warm season; assay type: in vivo, Cirsium arvense; details: GR80 = lowest tested rate (300, 100, 30, 10 g/ha) with 80% or greater inhibition; approx. 14 days after treating; 30/21° C.
Procedure, shortened: as §1

SOLNI (black nightshade) = assay: Pre-emergence herbicidal activity, warm season; assay type: in vivo, Solanum nigrum; details: GR80 = lowest tested rate (300, 100, 30, 10 g/ha) with 80% or greater inhibition; approx. 14 days after treating; 30/21° C.
Procedure, shortened: as §1

STEME (common chickweed) = assay: Pre-emergence herbicidal activity, cool season; assay type: in vivo, Stellaria media; details: lowest tested rate with 80% or greater inhibition; rates 300, 100, 30, 10 g/ha; about 14 days
Procedure, shortened: as §1

[4] = pre-plant incorporated, lowest tested rate with 80% or greater inhibition, about 14 days

With C=C(Br)CC(F)(F)S(=O)(=O)c1ncn(C(=O)N(CC)CC)n1 [Example 19] the “Pre-emergence activity (GR80) PANMI” value [1] was 100 g/ha, the inhibition at 10 g/ha (SASKR (russian thistle); Salsola kali, weed, PPI application, 10 g/ha, read-out: Percent inhibition SASKR) was 0% and the inhibition at 30 g/ha (SASKR (russian thistle); Salsola kali, weed, PPI application, 30 g/ha, read-out: Percent inhibition SASKR) was 0%. For the same compound, the inhibition at 100 g/ha (SASKR (russian thistle); Salsola kali, weed, PPI application, 100 g/ha, read-out: Percent inhibition SASKR) was 0%, the inhibition at 300 g/ha (SASKR (russian thistle); Salsola kali, weed, PPI application, 300 g/ha, read-out: Percent inhibition SASKR) was 60% and the inhibition at 900 g/ha (SASKR (russian thistle); Salsola kali, weed, PPI application, 900 g/ha, read-out: Percent inhibition SASKR) was 95%. The “PPI activity GR80, SASKR” value (SASKR (russian thistle); [4]) was 30 g/ha, the inhibition at 10 g/ha (LOLMG (annual ryegrass); Lolium multiflorum, weed, PPI application, 10 g/ha, read-out: Percent inhibition LOLMG) was 30% and the inhibition at 30 g/ha (LOLMG (annual ryegrass); Lolium multiflorum, weed, PPI application, 30 g/ha, read-out: Percent inhibition LOLMG) was 70%. For the same compound, the inhibition at 100 g/ha (LOLMG (annual ryegrass); Lolium multiflorum, weed, PPI application, 100 g/ha, read-out: Percent inhibition LOLMG) was 100%, the inhibition at 300 g/ha (LOLMG (annual ryegrass); Lolium multiflorum, weed, PPI application, 300 g/ha, read-out: Percent inhibition LOLMG) was 100% and the inhibition at 900 g/ha (LOLMG (annual ryegrass); Lolium multiflorum, weed, PPI application, 900 g/ha, read-out: Percent inhibition LOLMG) was 100%. For the same compound, the “PPI activity GR80, LOLMG” value (LOLMG (annual ryegrass); [4]) was 300 g/ha, the inhibition at 10 g/ha ([2]; Agrostis stolonifera, weed, PPI application, 10 g/ha, read-out: Percent inhibition AGSST) was 60% and the inhibition at 30 g/ha ([2]; Agrostis stolonifera, weed, PPI application, 30 g/ha, read-out: Percent inhibition AGSST) was 90%. For the same compound, the inhibition at 100 g/ha ([2]; Agrostis stolonifera, weed, PPI application, 100 g/ha, read-out: Percent inhibition AGSST) was 100%, the inhibition at 300 g/ha ([2]; Agrostis stolonifera, weed, PPI application, 300 g/ha, read-out: Percent inhibition AGSST) was 90% and the inhibition at 900 g/ha ([2]; Agrostis stolonifera, weed, PPI application, 900 g/ha, read-out: Percent inhibition AGSST) was 100%. The “PPI activity GR80, AGSST” value [2, 4] was 10 g/ha, the inhibition at 10 g/ha (corn (ZEAMX); 10 g/ha) was 0% and the inhibition at 30 g/ha (corn (ZEAMX); 30 g/ha) was 0%. The inhibition at 100 g/ha (corn (ZEAMX); 100 g/ha) was 10%, the inhibition at 300 g/ha (corn (ZEAMX); 300 g/ha) was 10% and the inhibition at 900 g/ha (corn (ZEAMX); 900 g/ha) was 35%. The inhibition at 30 g/ha (DIGSA (large crabgrass); Digitaria sanguinalis, PPI application, 30 g/ha, read-out: Percent inhibition DIGSA) was 40%, the inhibition at 100 g/ha (DIGSA (large crabgrass); Digitaria sanguinalis, PPI application, 100 g/ha, read-out: Percent inhibition DIGSA) was 90% and the inhibition at 300 g/ha (DIGSA (large crabgrass); Digitaria sanguinalis, PPI application, 300 g/ha, read-out: Percent inhibition DIGSA) was 90%. For the same compound, the inhibition at 900 g/ha (DIGSA (large crabgrass); Digitaria sanguinalis, PPI application, 900 g/ha, read-out: Percent inhibition DIGSA) was 99%, the “PPI activity GR80, DIGSA” value (DIGSA (large crabgrass); [4]) was 30 g/ha and the inhibition at 10 g/ha (AVEFA (wild oat); Avena fatua, weed, PPI application, 10 g/ha, read-out: Percent inhibition AVEFA) was 0%. The inhibition at 30 g/ha (AVEFA (wild oat); Avena fatua, weed, PPI application, 30 g/ha, read-out: Percent inhibition AVEFA) was 0%, the inhibition at 100 g/ha (AVEFA (wild oat); Avena fatua, weed, PPI application, 100 g/ha, read-out: Percent inhibition AVEFA) was 30% and the inhibition at 300 g/ha (AVEFA (wild oat); Avena fatua, weed, PPI application, 300 g/ha, read-out: Percent inhibition AVEFA) was 70%. The inhibition at 900 g/ha (AVEFA (wild oat); Avena fatua, weed, PPI application, 900 g/ha, read-out: Percent inhibition AVEFA) was 60%, the “PPI activity GR80, AVEFA” value (AVEFA (wild oat); [4]) was 300 g/ha and the inhibition at 10 g/ha (soybean (GLYMX); 10 g/ha) was 0%. It also gave an inhibition at 30 g/ha (soybean (GLYMX); 30 g/ha) of 0%, an inhibition at 100 g/ha (soybean (GLYMX); 100 g/ha) of 0% and an inhibition at 300 g/ha (soybean (GLYMX); 300 g/ha) of 0%. The inhibition at 900 g/ha (soybean (GLYMX); 900 g/ha) was 20%, the “Pre-emergence activity (GR80) CIRAR” value [3] was 300 g/ha and the “Pre-emergence activity (GR80) SOLNI” value (SOLNI (black nightshade)) was 300 g/ha. For the same compound, the “Pre-emergence activity GR80, STEME” value (STEME (common chickweed)) was 10 g/ha.
